The results in this text go back to patent US8748485B2, “Compound and medical use thereof” (Ono Pharmaceuticals Co., Ltd., priority 2010, dated 2014).

The series can be described thus: Kinetic study in dogs (oral administration, plasma levodopa). To be noted: dog, in vivo, po, 3 mg/kg; for Cmax/C6 hr (ratio of maximum plasma concentration and plasma concentration at 6 hours after oral administration, levodopa): male, beagle. An excerpt:
The relationship between the blood concentration of levodopa and side effects in patients who take levodopa has been gradually elucidated. […] In order to reduce the number of doses of levodopa and avoid side effects such as dyskinesia and wearing-off in patients who take levodopa, it is necessary to maintain the blood concentration of levodopa within a therapeutic range as long as possible.
These levodopa prodrugs are prodrugs containing an ester bond, and therefore, it is considered that among a number of enzymes, carboxyesterase plays the most important role in the process of producing levodopa by metabolizing the compound after the compound is administered in vivo. Therefore, as an animal species to be used for performing a kinetic study, dogs in which the organ distribution of carboxyesterase is most similar to that of humans were selected as subjects for evaluation.
The thus obtained drug solution was administered by gavage through a gastric tube into the stomach of dogs (male beagle dogs) which were fasted from the day before the administration. At 15 and 30 minutes, and 1, 2, 4, 6, and 8 hours after administration of the drug solution, 1 mL of blood was collected from a cephalic vein with a heparinized syringe. Immediately after the collection, the collected blood was centrifuged in a desktop centrifuge at 14500 rpm for 45 seconds. Then, acetonitrile containing 0.1125% formic acid was added to the thus obtained plasma in an amount as twice as large as the volume of the plasma, followed by stirring, and then, the resulting sample was stored at −20° C. until measurement.
The sample was thawed on the measurement day, followed by stirring and centrifugation at 13000 rpm for 3 minutes (at 4° C.). The resulting supernatant was filtered and the filtrate was analyzed by LC/MS/MS. The analysis was performed by LC/MS/MS under the following conditions.
Measurement Apparatus: API-5000 (manufactured by Applied Biosystems, Inc.)
Analytical column: CAPCELL PAK CR (1:4) (4.6 mm, I.D.×250 mm, 5 μm)
Analytical column temperature: 40° C.
Mobile phase: A: 5 mM ammonium formate (pH 3.9), B: acetonitrile (A/B=17/3)
Detection (levodopa): m/z (precursor): 196.19, m/z (product): 134.99
DP (Declustering Potential): −60
CE (Collision Energy): −25
CXP (Collision Cell Exit Potential): −17
Incidentally, the numerical value in the column which indicates the dose expressed in terms of levodopa refers to a dose equivalent to that of levodopa.

As for `COC(=O)[C@@H](N)Cc1ccc(OC(=O)CC(C)(C)C)c(OC(=O)CC(C)(C)C)c1` [Compound X, 3,3-dimethyl-butyric acid 4-((S)-2-amino-2-methoxycarbonyl-ethyl)-2-(3,3-dimethyl-butyryloxy)phenyl ester], the “AUC (area under the blood concentration-time curve of levodopa)” value (from here on “AUC”) is recorded as 0.42 μg^+ hr/mL; the “Cmax/C6 hr (ratio of maximum plasma concentration and plasma concentration at 6 hours after oral administration, levodopa)” value is on record as 12.6.

Consider `CCC(C)(CC)C(=O)Oc1ccc(C[C@H](N)C(=O)O)cc1OC(=O)C(C)(CC)CC.Cl` [Reference Example 18, (2S)-2-Amino-3-(3,4-bis((2-ethyl-2-methylbutanoyl)oxy)phenyl)propanoic acid hydrochloride], for which the “AUC” value is 0.12 μg^+ hr/mL; the “Cmax/C6 hr (ratio of maximum plasma concentration and plasma concentration at 6 hours after oral administration, levodopa)” value was determined as 2.9.

Regarding `CC(C)(C)CCC(=O)Oc1ccc(C[C@H](N)C(=O)O)cc1OC(=O)CCC(C)(C)C.Cl` [Reference Example 19, (2S)-2-Amino-3-(3,4-bis((4,4-dimethylpentanoyl)oxy)phenyl)propanoic acid hydrochloride], the “AUC” value was 0.70 μg^+ hr/mL; the “Cmax/C6 hr (ratio of maximum plasma concentration and plasma concentration at 6 hours after oral administration, levodopa)” value stood at 221.2.

`CCC(C)(CC)CC(=O)Oc1ccc(C[C@H](N)C(=O)O)cc1OC(=O)CC(C)(CC)CC.Cl` [Reference Example 21, (2S)-2-Amino-3-(3,4-bis((3-ethyl-3-methylpentanoyl)oxy)phenyl)propanoic acid hydrochloride]: the “AUC” value is recorded as 0.27 μg^+ hr/mL; the “Cmax/C6 hr (ratio of maximum plasma concentration and plasma concentration at 6 hours after oral administration, levodopa)” value is 8.8.

In the case of `CC(C)C(CC(=O)Oc1ccc(C[C@H](N)C(=O)O)cc1OC(=O)CC(C(C)C)C(C)C)C(C)C.Cl` [Reference Example 22, (2S)-2-Amino-3-(3,4-bis((3-isopropyl-4-methylpentanoyl)oxy)phenyl)propanoic acid hydrochloride], the “AUC” value stood at 0.28 μg^+ hr/mL; the “Cmax/C6 hr (ratio of maximum plasma concentration and plasma concentration at 6 hours after oral administration, levodopa)” value is 6.6.

As for `Cc1ccccc1C(=O)Oc1ccc(C[C@H](N)C(=O)O)cc1OC(=O)c1ccccc1C.Cl` [Reference Example 23, (2S)-2-Amino-3-(3,4-bis((2-methylbenzoyl)oxy)phenyl)propanoic acid hydrochloride], the “AUC” value came out at 0.59 μg^+ hr/mL; the “Cmax/C6 hr (ratio of maximum plasma concentration and plasma concentration at 6 hours after oral administration, levodopa)” value is 41.5.

Turning to `N[C@@H](Cc1ccc(OC(=O)c2ccccc2C(F)(F)F)c(OC(=O)c2ccccc2C(F)(F)F)c1)C(=O)O` [Reference Example 25, (2S)-2-Amino-3-(3,4-bis((2-(trifluoromethyl)benzoyl)oxy)phenyl)propanoic acid], the “AUC” value is 0.31 μg^+ hr/mL; the “Cmax/C6 hr (ratio of maximum plasma concentration and plasma concentration at 6 hours after oral administration, levodopa)” value is 24.2.

Consider `Cl.N[C@@H](Cc1ccc(OC(=O)C2CC2)c(OC(=O)C2CC2)c1)C(=O)O` [Reference Example 26, (2S)-2-Amino-3-(3,4-bis((cyclopropanecarbonyl)oxy)phenyl)propanoic acid hydrochloride], for which the “AUC” value is 0.45 μg^+ hr/mL; the “Cmax/C6 hr (ratio of maximum plasma concentration and plasma concentration at 6 hours after oral administration, levodopa)” value worked out at 18.0.

`CC1(C(=O)Oc2ccc(C[C@H](N)C(=O)O)cc2OC(=O)C2(C)CC2)CC1.Cl` [Reference Example 27, (2S)-2-Amino-3-(3,4-bis((1-methylcyclopropanecarbonyl)oxy)phenyl)propanoic acid hydrochloride]: the “AUC” value is recorded as 0.84 μg^+ hr/mL; the “Cmax/C6 hr (ratio of maximum plasma concentration and plasma concentration at 6 hours after oral administration, levodopa)” value stood at 58.7.

As for `Cl.N[C@@H](Cc1ccc(OC(=O)CC2CCCC2)c(OC(=O)CC2CCCC2)c1)C(=O)O` [Reference Example 28, (2S)-2-Amino-3-(3,4-bis(2-cyclopentylacetoxy)phenyl)propanoic acid hydrochloride], the “AUC” value was found to be 0.68 μg^+ hr/mL; the “Cmax/C6 hr (ratio of maximum plasma concentration and plasma concentration at 6 hours after oral administration, levodopa)” value is on record as 304.4.

Take `Cl.N[C@@H](Cc1ccc(OC(=O)CC2CCCCC2)c(OC(=O)CC2CCCCC2)c1)C(=O)O` [Reference Example 29, (2S)-2-Amino-3-(3,4-bis(2-cyclohexylacetoxy)phenyl)propanoic acid hydrochloride]: the “AUC” value was 0.59 μg^+ hr/mL; the “Cmax/C6 hr (ratio of maximum plasma concentration and plasma concentration at 6 hours after oral administration, levodopa)” value is 98.5.

Regarding `CC1(CC(=O)Oc2ccc(C[C@H](N)C(=O)O)cc2OC(=O)CC2(C)CCCCC2)CCCCC1.Cl` [Reference Example 30, (2S)-2-Amino-3-(3,4-bis(2-(1-methylcyclohexyl)acetoxy)phenyl)propanoic acid hydrochloride], the “AUC” value amounted to 0.36 μg^+ hr/mL; the “Cmax/C6 hr (ratio of maximum plasma concentration and plasma concentration at 6 hours after oral administration, levodopa)” value turned out to be 12.8.

Regarding `CC1(CC(=O)Oc2ccc(C[C@H](N)C(=O)O)cc2OC(=O)CC2(C)CCCC2)CCCC1.Cl` [Reference Example 31, (2S)-2-Amino-3-(3,4-bis(2-(1-methylcyclopentyl)acetoxy)phenyl)propanoic acid hydrochloride], the “AUC” value is recorded as 0.42 μg^+ hr/mL; the “Cmax/C6 hr (ratio of maximum plasma concentration and plasma concentration at 6 hours after oral administration, levodopa)” value is listed as 18.7.

As to `CC(=O)OC(C)(C)C(=O)Oc1ccc(C[C@H](N)C(=O)O)cc1OC(=O)C(C)(C)OC(C)=O.Cl` [Reference Example 32, (2S)-2-Amino-3-(3,4-bis((2-acetoxy-2-methylpropanoyl)oxy)phenyl)propanoic acid hydrochloride], the “AUC” value worked out at 0.53 μg^+ hr/mL; the “Cmax/C6 hr (ratio of maximum plasma concentration and plasma concentration at 6 hours after oral administration, levodopa)” value turned out to be 40.7.

For the molecule `CCC(CC)(OC(=O)c1ccccc1)C(=O)Oc1ccc(C[C@H](N)C(=O)O)cc1OC(=O)C(CC)(CC)OC(=O)c1ccccc1.Cl` [Reference Example 33, (2S)-2-Amino-3-(3,4-bis((2-(benzoyloxy)-2-ethylbutanoyl)oxy)phenyl)propanoic acid hydrochloride], the “AUC” value stood at 0.003 μg^+ hr/mL; the “Cmax/C6 hr (ratio of maximum plasma concentration and plasma concentration at 6 hours after oral administration, levodopa)” value was 2.0.

Take `C[C@H](OC(=O)c1ccccc1)C(=O)Oc1ccc(C[C@H](N)C(=O)O)cc1OC(=O)[C@H](C)OC(=O)c1ccccc1.Cl` [Reference Example 34, (2S)-2-Amino-3-(3,4-bis(((S)-2-(benzoyloxy)propanoyl)oxy)phenyl)propanoic acid hydrochloride]: the “AUC” value was found to be 0.10 μg^+ hr/mL; the “Cmax/C6 hr (ratio of maximum plasma concentration and plasma concentration at 6 hours after oral administration, levodopa)” value is listed as 16.1.

For the molecule `C[C@@H](OC(=O)c1ccccc1)C(=O)Oc1ccc(C[C@H](N)C(=O)O)cc1OC(=O)[C@@H](C)OC(=O)c1ccccc1.Cl` [Reference Example 35, (2S)-2-Amino-3-(3,4-bis(((R)-2-(benzoyloxy)propanoyl)oxy)phenyl)propanoic acid hydrochloride], the “AUC” value is on record as 0.77 μg^+ hr/mL; the “Cmax/C6 hr (ratio of maximum plasma concentration and plasma concentration at 6 hours after oral administration, levodopa)” value is given as 1039.6.
